Patent US4673665A, “Process for treating anestrus in ewes or beef cattle” (Hoechst Aktiengesellschaft, priority 1982, dated 1987)

Tests used:
[1] = system: monkey; conditions: continuous intravenous injection of LH-RH; cited from earlier work
[2] = system: sheep; conditions: i.v. injections of 250, 500 and 1,000 ng LH-RH at 2 hourly intervals over 8 days, no gestagen pretreatment; cited from earlier work
[3] = system: beef cows; test: Example 2: LH-RH injections at 2 hourly intervals or constant infusion in early post-partum beef cows; progesterone and LH level; format: in vivo, beef cattle; conditions: for No. showing progesterone rise: 2 to 4 days
Method: 17 Beef cows were injected with 1.0, 2.5 and 5.0 μg of LH-RH, respectively, in the early post-partum period during 2 to 4 days at 2 hourly intervals, while 21 beef cows were given a constant infusion of identical dosage per unit of time during the same period of time.
Blood samples were taken prior to and during the treatments to determine the LH level. Blood samples for determining the progesterone level were taken during a prolonged period of time after the treatment.

[4] = system: beef cows; test: Example 3: PRID progesterone device for 8 days, then constant LH-RH infusion in post-partum beef cows; ovulation; format: in vivo, beef cattle; conditions: PRID for 8 days, then LH-RH constant infusion 2.5 μg/2 h; 5 beef cows
Method: 5 Beef cows were treated in the early post-partum period over a period of 8 days by inserting in them an intravaginal device (PRID® of the firm Abbott) containing progesterone. Following withdrawal of the device a LH-RH constant infusion in doses of 2.5 μg/2 h was carried out in the manner described in Example 2. Ovulation occurred during the treatment in all cows, said ovulation being characterized by an increase in the progesterone plasma level.

[5] = system: sheep; conditions: 14-day s.c. progesterone implant, then 250 ng LH-RH at 2 hourly intervals for 48 hours, cited from earlier work
[6] = system: female mature ewes; test: Example 1: progesterone implant pretreatment, then constant LH-RH infusion in ewes; mating, ovulation (laparoscopy), pregnancy; format: in vivo, sheep (Clun Forest, Welsh Halfbred); conditions: for number of ovulations: laparoscopy
Method: Implants containing progesterone were administered subcutaneously to 28 female mature ewes of two different breeds ("Clun Forest" and "Welsh Halfbred") for a period of 14 days. 12 Ewes were infused constantly with 125 to 250 ng of LH-RH per hour over a period of 48 hours 2 hours before withdrawing the implants. Four ewes treated with a saline solution served as a control. The sheep were examined by laparoscopy to test them for ovulation, moreover blood samples were taken to determine the progesterone level. 24 hours after starting the infusions, onset of estrus was observed using fertile rams at 4 hourly intervals and the ewes in estrus were mated.

[7] = 125 ng of LH-RH/h constant infusion for 48 h after 14-day progesterone implant
[8] = 250 ng LH-RH/h constant infusion for 48 h after 14-day progesterone implant

## LH-RH: LH/FSH-releasing hormone, provokes release of LH and FSH from the pituitary gland
[1]
  pulsed LH release followed by induction of menstrual cycle and ovulation: failed
[2]
  induction of estrus: could not be induced
[3]; all test animals, irrespective of mode of administration and dose (1.0, 2.5, 5.0 μg)
  plasma LH concentrations during treatment phase compared to pretreatment phase: distinct increase
[3]; constant infusion 1.0 μg/2 h, total 6 + 3 cows
  No. showing progesterone rise: 2
[3]; constant infusion 1.0 μg/2 h, the 3 cows with calvings in summer
  number of animals that responded (progesterone rise): 2
[3]; constant infusion 1.0 μg/2 h, the 6 cows treated after spring calvings
  response (progesterone rise): did not respond
[3]; constant infusion 2.5 μg/2 h, total 6 cows
  No. showing progesterone rise: 4
[3]; constant infusion 5.0 μg/2 h, total 6 cows
  No. showing progesterone rise: 4
[3]; injections at 2 hourly intervals, 1.0 μg, total 6 cows
  No. showing progesterone rise: 4
[3]; injections at 2 hourly intervals, 2.5 μg, total 6 cows
  No. showing progesterone rise: 4
[3]; injections at 2 hourly intervals, 5.0 μg, total 5 cows
  No. showing progesterone rise: 4
[4]
  cows in which ovulation occurred during the treatment (increase in progesterone plasma level): all cows
[5]; 5 bred sheep
  number of bred sheep that became pregnant: 3
[5]; 5 sheep
  estrus and ovulation: induced
[6]; [7]
  rate of ovulations: 1.4
  number of ovulations: 9
[6]; 125 ng of LH-RH/h constant infusion for 48 h after 14-day s.c. progesterone implant
  number of mated sheep: 10
[6]; [8]
  rate of ovulations: 1.5
  number of ovulations: 12
[6]; 250 ng LH-RH/h constant infusion for 48 h after 14-day s.c. progesterone implant
  number of mated sheep: 11
[6]; ewes treated with LH-RH after progesterone implant and mated
  pregnancy rate: 75%
